In US6528521B2, “Treatment of anti-depression drug-induced sexual dysfunction with apomorphine” (Tap Pharmaceutical Products, Inc., priority 2000, dated 2003):

Tested on: male patients taking selective serotonin reuptake inhibitors
Test: Crossover home-use trial of sublingual apomorphine in male patients taking SSRIs
Assay type: in vivo, human
Conditions: apomorphine versus placebo
Method: A crossover study of 1500 patients in a home-use trial of apomorphine on male patients was performed.
In the crossover study, a 2-4 week baseline period was used to evaluate subjects. After this time, during an initial four week treatment period, subjects received either a placebo or apomorphine, without knowing whether or not they had received the active medication. The dosage was either 2, 4, 5 or 6 mg. This initial treatment period was followed by a 24-96 hour washout period, in which no medication was taken. Subsequently, a second four week treatment period, subjects who previously had received apomorphine, were given a placebo, and subjects who previously had received the placebo were given apomorphine. Subject were to attempt coitus once each week after taking a single tablet of apomorphine sublingually. After each attempt, the subject and their partner completed a sexual function questionnaire which was later evaluated and used for final statistical analysis. In the analysis, the data for patients receiving 2, 4, 5 or 6 mg dosages was pooled.

For `CN1CCc2cccc3c2[C@H]1Cc1ccc(O)c(O)c1-3` [apomorphine, (R)-5,6,6a,7-tetrahydro-6-methyl-4H-dibenzo-[de,g]quinoline-10,11-diol], the “patients on SSRI drugs able to have intercourse after taking apomorphine, relative to placebo” value was “twice as many”.
